In one assay the test system is human ES cells. To be noted: cited from earlier work.
For assay [1], the system named is human iPS cell line Tic (JCRB1331). Kind of assay: Culture with protein kinase C peptide inhibitor, alkaline phosphatase staining. It counts as cell-based. To be noted: fourth day, FIG. 9. The protocol: Media comprising the activin-containing supplement+hESF-grow medium or the activin-free supplement+hESF-grow medium with fibronectin coating described in Example 3 and 0, 1, 2.5, 5, or 10 μM each of myristoylated protein kinase C peptide inhibitor (Myr. […]) (from Promega Corporation) added thereto were prepared, and used as first media containing a protein kinase C inhibitor and second media containing a protein kinase C inhibitor.
Human iPS cell line Tic (JCRB1331) was dispersed in the first medium containing a protein kinase C inhibitor and culturing was started. 60 hours after starting the culturing of the cell line Tic, a medium change into the second medium containing a protein kinase C inhibitor was conducted. Twice of medium changes were further conducted every 24 hours. On the fourth day after starting the culturing, the cells were fixed with 4.5 mM citric acid, 2.25 mM sodium citrate, 3 mM sodium chloride, 65% methanol and 4% paraformaldehyde for five minutes. Alkaline phosphatase staining was conducted with FastRed substrate kit (from Sigma Chemical Co.) according to the guidance of the manufacturer.

The test system of assay [2] is ERK (extracellular signal-regulated kinases). To be noted: addition of activin; cited from earlier work.
For assay [3], the system named is human ES cell line KhES-1. Kind of assay: Cell adhesion to ECM-coated microplates (crystal violet, absorbance 595 nm). The class given is cell-based. To be noted: coating 0.01-10 μg/cm^2, hESF9 medium, two days culture; FIG. 1(a). On the procedure:
(§1) The inventors studied on the substitution of ECMs such as collagen I, gelatin, laminin, fibronectin, and the like, which are recently used as a cell support in place of feeder cells, from animal-derived materials to animal product-free ingredients. Studies were conducted with human ES cell line KhES-1 (Laboratory of embryonic stem Cell research Center, Institute for Frontier Medical Sciences, Kyoto University), and human iPS cell line Tic (JCRB1331) (JSCB cell bank, National Institute of Biomedical Innovation); and the embryonal cancer cell line PA-1 (JCRB9061) (JSCB cell bank, National institute of Biomedical Innovation) was used as a comparative example.
(§2) Using 96 well microplates (from Corning Incorporated), each of collagen I (from Nitta Gelatin Inc.), gelatin (from Sigma Chemical Co.), laminin (from Sigma Chemical Co.), and fibronectin (from Sigma Chemical Co.) was treated at 37° C. for 3 hours, with avoiding being dried, to coat the microplates with each at 0.01, 0.05, 0.1, 0.5, 1, 5 and 10 μg/cm^2. The aforementioned hESF9 medium was added, and then human ES cell line KhES-1 and human iPS cell line Tic (JCRB1331), and embryonal cancer cell line PA-1 (JCRB9061) were seeded at […], after counting their cell numbers. After culturing the cells for two days (or culturing the embryonal cancer cell line PA-1 (JCRB9061) for one hour), the cells were fixed and nuclei of adhered cells were stained with 0.4% crystal violet (from Sigma Chemical Co.) dissolved in methanol for 30 minutes. The microplates were washed and then dried. The cells were lysed with 0.1 M sodium citrate dissolved in 50% methanol, and absorbance at 595 nm was measured with a microplate reader (model 550, from Bio-Rad Laboratories, Inc.).

For assay [4], the system named is human iPS cell line Tic (JCRB1331). The assay is described as above. It counts as cell-based. To be noted: coating 0.01-10 μg/cm^2, hESF9 medium, two days culture; FIG. 1(b). On the procedure:
as §1, §2

Assay [5] deals with embryonal cancer cell line PA-1 (JCRB9061). Kind of assay: Cell adhesion to ECM-coated microplates (comparative example). To be noted: hESF9 medium, one hour culture; FIG. 1(c). The class given is cell-based. The protocol:
as §1, §2
Embryonal cancer cell line PA-1 (JCRB9061) was studied on the adhesion ability to the various ECNs described above.

Another assay has as its system murine ES cells. To be noted: serum-free medium; cited from earlier work.
For the next assay, the system named is cell line H9 (WA09). Kind of assay: Culture with fibronectin added to the medium, cell appearance. The class given is cell-based, human. To be noted: 0, 20, 40, 80, 160, 320 μg/well tested; 9.6 cm^2 well, 3 mL medium; FIG. 8. On the procedure: In a 6 well plate (from Becton, Dickinson and Company), first media containing fibronectin were prepared by adding 10 μg/mL recombinant human insulin, 5 μg/mL recombinant human transferrin (apo), 10 μM 2-mercaptoethanol, 10 μM 2-ethanolamine, 20 nM sodium selenite, 9.4 μg/mL oleic acid complexed with 1 mg/mL recombinant human albumin, and 2 ng/mL recombinant human activin to the hESF-grow medium, and further adding 0, 20, 40, 80, 160, or 320 μg/well of bovine fibronectin to each well.
In a 6 well plate (from Becton, Dickinson and Company), second media containing fibronectin were prepared by adding 5 μg/mL recombinant human transferrin (apo), 10 μM 2-mercaptoethanol, 10 μM 2-ethanolamine, 20 nM sodium selenate and 9.4 μg/mL oleic acid complexed with 1 mg/mL recombinant albumin to the hESF-grow medium, and further adding 0, 20, 40, 80, 160, or 320 μg/well of bovine fibronectin to each well.
The cell line H9 (WA09) was cultured similarly to the culturing on fibronectin coating described above, except that the first medium and the second medium described in the above section on fibronectin coating were replaced with the first media containing fibronectin and the second media containing fibronectin, and cells were cultured at varying concentrations of fibronectin in respective wells. The area of 1 well in the used plate was 9.6 cm^2, and 3 mL each of the medium was added.

For the next assay, the system named is pluripotent stem cells. Kind of assay: Cytokeratin expression of cells cultured on laminin. The class given is cell-based, human.

No end group written: not given here. *: point of attachment. Myristoyl = CCCCCCCCCCCCCC(=O)*

Turning to `O=S(=O)(O)CCN1CCN(CCO)CC1` [HEPES], the “effect on the maintenance of human ES cells” value in the assay with human ES cells (added into serum-free medium) is “very adverse effect”.

As to “Myr. RFARKGALRQKNV (Myristoyl-RFARKGALRQKNV)”, the proliferation result in [1] (1 to 2.5 μM in medium) was “increase in proliferation”. Also, the “suppression of differentiation compared to no inhibitor” value in assay [1] (1 to 5 μM in medium) is listed as “further suppression of differentiation”.

As for activin, the ERK activation result in assay [2] is reported as “activates ERK”. Further, in the assay with human ES cells (addition of activin), the “differentiation induction into the nerve or mesendoderm” value is recorded as “promotes differentiation induction”.

For the compound collagen, the adhesion ability result in [3] is listed as “weak adhesion ability”; in assay [4], “weak adhesion ability”; in assay [5], “strongest adhesion ability”. Also, the “coating concentration at which adhesion ability was strongest” value in assay [5] is “about 10 μg/cm^2”.

In the case of fibronectin, the “effect on undifferentiated state / differentiation” value in the assay on murine ES cells is recorded as “act to promote the differentiation”. In addition, the adhesion ability result in [3] and in assay [4] was “strongest adhesion ability” in each case. The “amount of fibronectin at which the undifferentiated state was best maintained” value in the assay on cell line H9 (WA09) turned out to be 80 μg/well.

gelatin: the adhesion ability entry was “weak adhesion ability” in assay [3], “weak adhesion ability” in assay [4] and “strongest adhesion ability” in [5]. Also, in assay [5], the “coating concentration at which adhesion ability was strongest” value was “about 10 μg/cm^2”.

On to heparin, for which the “proliferation of ES cells” value in the assay on human ES cells (added in the absence of FGF-2) was “promotes the proliferation”.

As to laminin, the “effect on undifferentiated state / differentiation” value in the assay on murine ES cells is recorded as “act to promote the differentiation”. In addition, the adhesion ability entry in [3] and in assay [4] was “strongest adhesion ability” throughout. Moreover, the cytokeratin expression entry in the assay on pluripotent stem cells is listed as “express cytokeratin strongly”.
